Source: PMC7696940, “Effects of Rationally Designed Physico-Chemical Variants of the Peptide PuroA on Biocidal Activity towards Bacterial and Mammalian Cells” (International Journal of Molecular Sciences, 2020)
Converted amounts (≈) assume the structure as drawn. Where no end group is shown, it is not given here.

Columns and labels:
[1] = system: porcine trypsin and proteinase K; test: Proteases stability assay; format: in vitro ADME, porcine; Tritirachium album; conditions: 1000 µg peptide with 50 µg protease (20:1 w/w), porcine trypsin or proteinase K, PBS pH 7.4, 37 °C, 3 h; read-out activity of supernatant on E. coli and S. aureus; triplicate
Experimental: The effect of two well-studied proteases, porcine trypsin and proteinase K from Tritirachium album, on the activity of peptides was investigated as per Carmona et al.. Briefly, 1000 µg of a peptide was incubated with 50 µg of a protease (20:1 w/w) at 37 °C for 3 h in phosphate buffered saline PBS (pH 7.4). The enzyme activity was then terminated by heating (70 °C, 5 min) and the samples centrifuged at 12,000× g. The activity of the supernatant on E. coli and S. aureus was tested as above, in triplicate.

E. coli and S. aureus = test: Salt tolerance (MICs under 0-150 mM NaCl, summary); format: cell-based, Escherichia coli; Staphylococcus aureus; design: key: Up to 50 mM: no effects on antibacterial activity up to 50 mM NaCl but increase in the MICs for E. coli and S. aureus at 100 mM NaCl; Intolerant: not resistant to salt effects even at 50 mM NaCl; Up to 150 mM: no effects on antibacterial activity up to 150 mM NaCl; conditions: MICs for E. coli and S. aureus in MHB with 0, 50, 100 or 150 mM NaCl
Experimental: (§1) The activity of peptides was determined against the Gram-positive Staphylococcus aureus (ATCC 25923), and the Gram-negative Escherichia coli (ATCC 25922) and Pseudomonas aeruginosa (ATCC 9027) bacteria. Selected peptides were also tested against two clinical isolates of methicillin-resistant Staphylococcus aureus (MRSA), M173525 and M180920, kindly provided by Dr P. B. Ward (Microbiology Department, Austin and Repatriation Medical Centre, Heidelberg West, Victoria, Australia). The Minimum inhibitory concentration (MIC) of peptides was determined by the microtitre broth dilution method, as described in Phillips et al.. Briefly, bacteria were grown in Mueller-Hinton Broth (MHB) at 37 °C overnight with shaking (200 rpm). The cultures were adjusted to 0.5 McFarland turbidity standard (approximately 1 × 10^8 colony forming units (CFU)/mL), then diluted 1:100 in MHB (1 × 10^6 CFU/mL). A total of 75 μL of these suspensions were mixed with 25 μL of peptide solutions (final concentrations 250 to 0.5 μg/mL) and the microtitre plates incubated overnight at 37 °C. Positive growth controls (inoculum and MHB, with no peptide) and sterility controls (0.01% glacial acetic) were also included. Post-incubations, the absorbance of cultures at 595 nm was measured using a microplate reader (POLARstar Omega, Germany). […] To evaluate salt sensitivity of peptides up to physiological levels (150 mM NaCl), overnight cultures of S. aureus and E. coli adjusted to 0.5 McFarland turbidity standard were diluted 1:100 in MHB containing 0, 50, 100 or 150 mM NaCl, and the MICs of peptides determined as above. All tests were conducted in triplicate. The results are shown as the mode of values obtained.

HeLa cells = format: cell-based, human; conditions: MTT, 24 h, peptide up to 250 µg/mL; concentration causing 50% cell growth inhibition; mean of triplicate assays
Experimental: (§2) Cytotoxicity to human cervical carcinoma HeLa cells and mouse fibroblastic NIH-3T3 cells was determined using the MTT assay as per Scudiero et al. with minor modifications. The cells were maintained in Dulbecco’s Modified Eagle Medium (DMEM) with 10% foetal bovine serum (FBS) and 1% penicillin G in a humidified incubator (Heraeus Hera Cell incubator) at 37 °C with 5% CO2. They were seeded in 96-well microtiter plates at 1 × 10^4 cells/well and allowed to adhere for 24 h in the incubator. The medium was removed, and adherent cells were washed with PBS. Fresh media containing serially diluted peptides in PBS (final concentrations 4 to 250 µg/mL) were added and the cells incubated for 24 h. Cells without peptides were used as negative controls. Following incubations, the medium was removed, and adherent cells were washed with PBS. 150 µL of MTT (diluted to 0.33 mg/mL in DMEM) and the plates incubated for 3 h. The precipitated formazan was dissolved in 100 µL of DMSO and its absorbance measured at 570 nm. Cell viability was determined as: (OD570 nm peptide treated cells/(OD570 nm untreated cells) × 100. Positive cytotoxicity was defined as peptide concentration that causes 50% growth inhibition in a cell line (IC50). All tests were carried out in triplicate.

C. albicans FRR 5580 = format: cell-based, Candida albicans; conditions: PDB, overnight; mode of three independent experiments
Experimental: The assay was carried out as per Alfred et al.. Candida albicans (FRR 5580) was grown in potato dextrose broth (PDB; Difco-BD, Bergen County, NJ, USA) overnight at 30 °C with shaking (200 rpm) until exponential phase, then adjusted to 0.5 McFarland turbidity standard (approximately 1 × 10^6 cells/mL) and diluted 1:200 with PDB to 0.5 − 2 × 10^3 cells/mL. Peptides in 25 μL volumes were mixed with 75 μL of the yeast suspensions. The controls were included as above. The plates were incubated overnight and absorbance was recorded. All the tests were conducted in triplicate.

P. aeruginosa ATCC9027 = format: cell-based, Pseudomonas aeruginosa; conditions: MHB, 37 °C overnight, A595; mode of three independent experiments
Experimental: as §1

S. aureus ATCC25923 = format: cell-based, Staphylococcus aureus; conditions: MHB; for MIC S. aureus, No NaCl: 0 mM NaCl; for MIC S. aureus, No NaCl / MIC S. aureus, With 50mM NaCl / MIC S. aureus, With 100mM NaCl / MIC S. aureus, With 150mM NaCl: triplicate, mode; for MIC S. aureus ATCC25923: 37 °C overnight, A595, mode of three independent experiments
Experimental: as §1

E. coli ATCC25922 = format: cell-based, Escherichia coli; conditions: MHB; for MIC E. coli, No NaCl: 0 mM NaCl; for MIC E. coli, No NaCl / MIC E. coli, With 50mM NaCl / MIC E. coli, With 100mM NaCl / MIC E. coli, With 150mM NaCl: triplicate, mode; for MIC E. coli ATCC25922: 37 °C overnight, A595, mode of three independent experiments
Experimental: as §1

NIH-3T3 cells = test: Cytotoxicity, MTT assay; format: cell-based, mouse; conditions: 24 h; for IC50 NIH-3T3: peptide up to 250 µg/mL, concentration causing 50% cell growth inhibition, mean of triplicate assays
Experimental: as §2

[2] = system: pBlueScript SK+ plasmid DNA; test: In vitro DNA-binding assay (gel retardation); conditions: 100 ng pBlueScript SK+, peptide 8-500 µg/mL, 1 h room temperature, 1% agarose
Experimental: The ability of peptides to bind to purified DNA (indicative of in vivo DNA binding potential) was tested by the modified gel retardation assay developed by Alfred et al.. The DNA of pBlueScript SK+ (100 ng) was incubated with peptides (to final concentrations of 8, 16, 32, 64, 125, 250 or 500 µg/mL) in 15 µL volumes made with sterile MilliQ water, the held at room temperature for 1h. Loading dye was added to each sample and the samples electrophoresed on 1% agarose gels. The gels were then immersed in ethidium bromide ([…]) then visualized and imaged

Molecule	Protease Stability [1]	Salt Tolerance (E. coli and S. aureus)	IC50 HeLa (HeLa cells) [mg/L]	MIC C. albicans FRR 5580 (C. albicans FRR 5580) [mg/L]	MIC P. aeruginosa ATCC9027 (P. aeruginosa ATCC9027) [mg/L]	MIC S. aureus, No NaCl (S. aureus ATCC25923) [mg/L]	MIC S. aureus, With 50mM NaCl (S. aureus ATCC25923) [mg/L]	MIC S. aureus, With 100mM NaCl (S. aureus ATCC25923) [mg/L]	MIC S. aureus, With 150mM NaCl (S. aureus ATCC25923) [mg/L]	MIC S. aureus ATCC25923 (S. aureus ATCC25923) [mg/L]	MIC E. coli, No NaCl (E. coli ATCC25922) [mg/L]	MIC E. coli, With 50mM NaCl (E. coli ATCC25922) [mg/L]	MIC E. coli, With 100mM NaCl (E. coli ATCC25922) [mg/L]	MIC E. coli, With 150mM NaCl (E. coli ATCC25922) [mg/L]	MIC E. coli ATCC25922 (E. coli ATCC25922) [mg/L]	IC50 NIH-3T3 (NIH-3T3 cells) [mg/L]	Cytotoxicity to NIH-3T3 mouse fibroblasts (in words) (NIH-3T3 cells; up to 250 µg/mL)	Binding to DNA in vitro (concentration inhibiting plasmid migration) [2] [µg/mL]
CC(C)[C@H](NC(=O)[C@@H]1CCCN1C(=O)[C@@H](N)Cc1ccccc1)C(=O)N[C@H](C(=O)N[C@@H](Cc1c[nH]c2ccccc12)C(=O)N[C@@H](CCCNC(=N)N)C(=O)N[C@@H](Cc1c[nH]c2ccccc12)C(=O)N[C@@H](Cc1c[nH]c2ccccc12)C(=O)N[C@@H](CCCCN)C(=O)N[C@@H](Cc1c[nH]c2ccccc12)C(=O)N[C@@H](Cc1c[nH]c2ccccc12)C(=O)N[C@@H](CCCCN)C(=O)NCC(=O)NCCCC[C@@H](NC(=O)CNC(=O)[C@H](CCCCN)NC(=O)[C@H](Cc1c[nH]c2ccccc12)NC(=O)[C@H](Cc1c[nH]c2ccccc12)NC(=O)[C@H](CCCCN)NC(=O)[C@H](Cc1c[nH]c2ccccc12)NC(=O)[C@H](Cc1c[nH]c2ccccc12)NC(=O)[C@H](CCCNC(=N)N)NC(=O)[C@H](Cc1c[nH]c2ccccc12)NC(=O)[C@@H](NC(=O)[C@@H](NC(=O)[C@@H]1CCCN1C(=O)[C@@H](N)Cc1ccccc1)C(C)C)[C@@H](C)O)C(N)=O)[C@@H](C)O [Di-PuroA]	Unstable	Intolerant	–	–	–	–	–	–	–	–	–	–	–	–	–	–	–	–
CC(C)[C@H](NC(=O)[C@@H]1CCCN1C(=O)[C@@H](N)Cc1ccccc1)C(=O)N[C@H](C(=O)N[C@@H](Cc1c[nH]c2ccccc12)C(=O)N[C@@H](CCCNC(=N)N)C(=O)N[C@@H](Cc1c[nH]c2ccccc12)C(=O)N[C@@H](Cc1c[nH]c2ccccc12)C(=O)N[C@@H](CCCCN)C(=O)N[C@@H](Cc1c[nH]c2ccccc12)C(=O)N[C@@H](Cc1c[nH]c2ccccc12)C(=O)N[C@@H](CCCCN)C(=O)NCC(=O)O)[C@@H](C)O [PuroA-OH]	Unstable	Intolerant	>250	250 (≈ 134 µM)	125 (≈ 67.1 µM)	64 (≈ 34.3 µM)	125 (≈ 67.1 µM)	> 250	> 250	64 (≈ 34.3 µM)	32 (≈ 17.2 µM)	64 (≈ 34.3 µM)	> 250	> 250	32 (≈ 17.2 µM)	>250	no cytotoxicity	–
RKRWWRWWKWWKR-NH2 [dP1, diastereomeric counterpart of P1]	–	Up to 150 mM	125	64	16	16	16	16	16	–	16	16	16	16	–	250	–	–
RWWKWW-NH2 [Peptide R6]	Unstable	Intolerant	>250	64	32	16	32	250	> 250	16	32	64	250	> 250	32	250	–	–
RWWKWWK-NH2 [Peptide R7]	Unstable	Intolerant	>250	64	32	16	32	250	> 250	16	8	32	250	> 250	8	250	–	–
WRWWKWW-NH2 [dW7, diastereomeric counterpart of W7]	–	Up to 150 mM	125	64	16	8	8	8	8	8	8	8	8	8	8	>250	–	≥ 32
WWRWWKWW-NH2 [dWW, diastereomeric counterpart of WW]	–	Up to 150 mM	125	64	32	8	8	8	8	8	8	8	8	8	8	250	–	–
